Like-named read-outs stand apart in the source and are kept apart here. No end group written: not given here. Cy5 = Cy5 cyanine dye label
Legend:
[1] = cited from earlier work
[2] = tested on: lipoproteins; conditions: binding to lipoproteins; cited from earlier work
[3] = Werle and Bernkop-Schnürch 2006; cited from earlier work
[4] = tested on: human skeletal muscle cells (HSKMC Cells); assay: Cell penetration imaging in human skeletal muscle cells; type: cell-based; conditions: 60 mins incubation, CY5 tagged peptide
Experimental: An array of imaging studies was conducted to determine the kinetics and nature of the peptide (SEQUENCE ID NO. 1) interaction with target cell types. These experiments were required to determine if the peptide target was an intra or extra cellular protein. […] Control staining with the unlabelled CY5 dye should no uptake in this cell type.

[5] = tested on: α-SMA; assay: Anti-fibrotic activity in human primary hepatic stellate cells (α-SMA); type: cell-based
Experimental: FIG. 5A and B illustrate peptide of SEQUENCE ID NO. […] (A) Confocal imaging of human stellate cells treated with TGF-β1 to stimulate expression of α-SMA before treatment with peptide (5 nM). (B) Quantification of α-SMA expression.
Human stellate cells were treated with TGF-β1 to stimulate expression of α-SMA (smooth muscle action; primary marker for fibrosis) before treatment with the peptide (5 nM; SEQUENCE ID NO. 1). Confocal imaging of the cells was undertaken.

[6] = tested on: IL-8; assay: IL-8 secretion in LPS-treated HepG2 cells; type: cell-based; conditions: peptide 5 ng/ml for 24 h, then 100 ng/mL LPS for 24 h
Experimental: FIG. 4 illustrates peptide of SEQUENCE ID NO. […] HepG2 cells were treated with peptide (5 ng/ml) for 24 h before treating with 100 ng/mL of LPS for 24 h. Data presented are the mean±SEM of at least 2 independent experiments. (*p<0.05 **p<0.01 ***p<0.001)
HepG2 cells were treated with peptide (5 ng/ml) for 24 h before treating with 100 ng/mL of LPS for 24 h. Data presented are the mean±SEM of at least two independent experiments. (*p<0.05 **p<0.01 ***p<0.001)

[7] = tested on: PANX1; assay: Retrogenix cell microarray, confirmation on fixed and live cells; type: binding, human; conditions: for binding / specific interaction with PANX1: fixed HEK293 cells, 0.01 and 0.05 μg/ml, two separate expression clones
Experimental: (§1) CY5-labelled peptide (SEQUENCE ID NO. 1; (0.01 & 0.05 μg/ml) was screened for binding against fixed HEK293 Cells expressing 5528 human plasma membrane proteins. Screening was carried across two replicates and initial hits were selected and screened in more specific confirmation assay.
(§2) To confirm extracellular membrane binding of the peptide in culture, receptor screening was carried out (Retrogenix). Retrogenix's cell microarray technology was used to screen for specific cell surface target interactions of a CY5 labelled peptide (pep_HTWCFL the CY5 labelled version of SEQUENCE ID NO. 1).
(§3) Under this condition, the test peptide was screened for binding against fixed human HEK293 cells, individually expressing 5528 full-length human plasma membrane proteins and secreted proteins.
(§4) Each primary hit was then re-expressed, along with two control receptors (CD20 (MS4A1) and EGFR), and re-tested with 0.01 μg/ml and 0.05 μg/ml test peptide, equal concentrations of a control peptide, and other positive and negative control treatments. […] Among these were PANX1 (from two separate expression clones), SLC35F2 and TACR1.

[8] = target: T1, SLC35F2 (Homo sapiens, UniProt Q8IXU6); assay: as above; type: binding; conditions: for binding / specific interaction with SLC35F2: fixed HEK293 cells, 0.01 and 0.05 μg/ml
T1 construct: individually expressing 5528 full-length human plasma membrane proteins and secreted proteins; host or cells: HEK293 (fixed and live)
T1 sequence (Q8IXU6 1-374): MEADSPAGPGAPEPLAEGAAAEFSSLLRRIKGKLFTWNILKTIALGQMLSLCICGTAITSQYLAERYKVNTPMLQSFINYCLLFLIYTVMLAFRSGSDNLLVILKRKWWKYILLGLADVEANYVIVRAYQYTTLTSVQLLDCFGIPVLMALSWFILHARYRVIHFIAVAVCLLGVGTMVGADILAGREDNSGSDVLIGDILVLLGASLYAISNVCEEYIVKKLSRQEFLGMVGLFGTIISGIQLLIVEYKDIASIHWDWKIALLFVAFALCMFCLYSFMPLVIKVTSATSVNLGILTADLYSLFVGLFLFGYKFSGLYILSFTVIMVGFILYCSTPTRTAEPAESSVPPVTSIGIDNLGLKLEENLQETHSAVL
Experimental: as §1, §2, §3, §4

[9] = target: T2, TACR1 (Substance P receptor) (Homo sapiens, UniProt P25103); assay: as above; type: binding; conditions: for binding / specific interaction with TACR1: fixed HEK293 cells, 0.01 and 0.05 μg/ml
T2 construct: individually expressing 5528 full-length human plasma membrane proteins and secreted proteins; host or cells: HEK293 (fixed and live)
Experimental: as §1, §2, §3, §4

[10] = target: T3, Panx1 (Homo sapiens, UniProt Q96RD7); assay: Ca2+ flux assay and flow cytometry in THP-1 cells; type: cell-based; set-up: endogenous in cells; host or cells: THP-1; conditions: 45 s preincubation with 1 μM peptide, ATP stimulation
Source text: FIG. 9A, B and C illustrate downregulation of ATP mediated Ca2+ ions flux by the peptide (SEQUENCE ID NO. 1). ATP treatment of THP-1 cells causes an increase in detection of FITC labelled Ca^2+ ions (A). […] Comparison of FITC fluorescent units detected via flow cytometry, independent of the peptide and in the presence of the peptide (C).
Panx-1 binding with the peptide (SEQUENCE ID NO. 1) was investigated using a Ca^2+ flux assay and flow cytometry. Panx-1 plays an important role in regulating the Ca^2+ ion and ATP balance at the cell membrane. This relationship can be leveraged to monitor the activity of Panx1. Blocking Panx1 should lead to a significant decrease in Ca^2+ flux in the cell, in response to ATP stimulation.
THP-1 cells were incubated with a FITC fluorescent dye for a period of 30 min in order to label intracellular Ca^2+ ions. Cells were then stimulated with ATP to drive calcium flux from the cell, this increase in fluorescence is then detected by flow cytometry. Prior to ATP stimulation, the cells are incubated with 1 μM doses of the peptide in order to investigate if a drop in calcium flux is observed, this drop caused by binding of the peptide to Panx1, thus inhibiting ATP mediated calcium flux.

[11] = target: T3, Panx1; assay: Intracellular peptide concentration after PANX1 activation (Caco2); type: cell-based; set-up: endogenous in cells; host or cells: Caco2; conditions: Caco2 cells, before and after channel activation by increased extracellular calcium
Experimental: The peptide of the invention (SEQUENCE ID NO. 1) was added to cells (Caco2). The PANX1 channel was activated in cells by increasing extracellular calcium levels. The intracellular concentration of the peptide was measured before and after activation.

[12] = tested on: 5528 full-length human plasma membrane proteins and secreted proteins; assay: Retrogenix cell microarray screen on fixed HEK293 cells; type: binding
Experimental: as §1, §2, §3, §4

[13] = target: T4, SLC35F2 (human, UniProt Q8IXU6 1-374); assay: cell microarray, CY5-labelled peptide on fixed HEK293 cells expressing human plasma membrane proteins
T4 construct: whole, on cells
T4 sequence (looked up): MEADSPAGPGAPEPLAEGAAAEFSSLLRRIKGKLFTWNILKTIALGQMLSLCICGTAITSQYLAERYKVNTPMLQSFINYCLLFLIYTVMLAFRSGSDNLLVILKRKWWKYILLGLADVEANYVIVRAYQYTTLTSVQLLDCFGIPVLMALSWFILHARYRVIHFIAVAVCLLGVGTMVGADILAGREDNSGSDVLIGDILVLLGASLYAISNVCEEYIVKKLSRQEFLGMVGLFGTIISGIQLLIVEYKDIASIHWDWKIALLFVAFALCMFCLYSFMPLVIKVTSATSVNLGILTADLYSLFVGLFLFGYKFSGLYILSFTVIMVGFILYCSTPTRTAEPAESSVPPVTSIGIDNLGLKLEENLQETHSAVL

[14] = target: T5, TACR1 (Substance P receptor) (human, UniProt P25103 1-407); assay: as above
T5 construct: whole, on cells
T5 sequence (P25103 whole entry): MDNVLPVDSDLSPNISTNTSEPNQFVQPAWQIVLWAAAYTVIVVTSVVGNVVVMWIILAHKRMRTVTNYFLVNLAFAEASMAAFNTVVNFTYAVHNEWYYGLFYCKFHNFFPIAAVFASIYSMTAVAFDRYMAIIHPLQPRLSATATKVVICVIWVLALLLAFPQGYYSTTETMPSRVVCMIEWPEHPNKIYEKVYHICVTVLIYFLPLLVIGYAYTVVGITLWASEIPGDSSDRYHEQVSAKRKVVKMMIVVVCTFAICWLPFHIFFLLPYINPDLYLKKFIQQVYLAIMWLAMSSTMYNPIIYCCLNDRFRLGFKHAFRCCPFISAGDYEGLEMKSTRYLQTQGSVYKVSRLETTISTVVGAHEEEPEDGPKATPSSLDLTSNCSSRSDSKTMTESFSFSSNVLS

PANX1, sequence (Q96RD7 1-400 limits assumed): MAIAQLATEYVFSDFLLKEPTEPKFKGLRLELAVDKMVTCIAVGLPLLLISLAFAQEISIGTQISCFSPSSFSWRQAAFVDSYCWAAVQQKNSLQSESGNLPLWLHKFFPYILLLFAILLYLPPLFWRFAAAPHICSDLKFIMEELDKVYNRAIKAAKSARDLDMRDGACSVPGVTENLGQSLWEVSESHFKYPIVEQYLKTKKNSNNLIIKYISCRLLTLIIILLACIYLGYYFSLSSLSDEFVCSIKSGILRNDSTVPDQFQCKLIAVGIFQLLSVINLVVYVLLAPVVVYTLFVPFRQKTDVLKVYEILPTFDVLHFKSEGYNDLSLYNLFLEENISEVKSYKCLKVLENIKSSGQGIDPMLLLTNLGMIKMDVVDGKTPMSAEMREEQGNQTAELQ
T2 sequence (P25103 whole entry): as the sequence (P25103 whole entry) above
T3 sequence (Q96RD7 whole entry): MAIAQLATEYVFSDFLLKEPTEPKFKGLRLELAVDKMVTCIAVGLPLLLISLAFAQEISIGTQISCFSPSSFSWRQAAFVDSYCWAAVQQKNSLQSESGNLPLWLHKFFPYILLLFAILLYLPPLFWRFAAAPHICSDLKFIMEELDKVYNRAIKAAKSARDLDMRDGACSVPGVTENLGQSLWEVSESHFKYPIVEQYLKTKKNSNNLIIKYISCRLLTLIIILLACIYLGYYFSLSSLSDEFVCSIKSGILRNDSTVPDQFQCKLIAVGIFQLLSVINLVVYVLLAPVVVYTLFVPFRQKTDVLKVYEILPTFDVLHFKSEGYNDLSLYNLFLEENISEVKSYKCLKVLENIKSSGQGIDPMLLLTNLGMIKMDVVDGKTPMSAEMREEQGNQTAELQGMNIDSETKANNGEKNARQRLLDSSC

In the case of `CCNC(=O)[C@@H]1CCCN1C(=O)[C@H](CCCNC(=N)N)NC(=O)[C@H](CC(C)C)NC(=O)[C@@H](COC(C)(C)C)NC(=O)[C@H](Cc1ccc(O)cc1)NC(=O)[C@H](CO)NC(=O)[C@H](Cc1c[nH]c2ccccc12)NC(=O)[C@H](Cc1cnc[nH]1)NC(=O)[C@@H]1CCC(=O)N1` [buserelin], the half-life ([1]; in humans, in words) is listed as “much longer half-life”.

For `NC(=O)CC[C@@H]1NC(=O)[C@H](Cc2ccccc2)NC(=O)[C@H](Cc2ccc(O)cc2)NC(=O)CCSSC[C@@H](C(=O)N2CCC[C@H]2C(=O)N[C@H](CCCN=C(N)N)C(=O)NCC(N)=O)NC(=O)[C@H](CC(N)=O)NC1=O` [desmopressin], the half-life ([1]; human, in vivo) is given as 3.7 h.

For `C[C@@H](O)[C@@H]1NC(=O)[C@H](CCCCN)NC(=O)[C@@H](Cc2c[nH]c3ccccc23)NC(=O)[C@H](Cc2ccccc2)NC(=O)[C@@H](NC(=O)[C@H](N)Cc2ccccc2)CSSC[C@@H](C(=O)N[C@H](CO)[C@@H](C)O)NC1=O` [octreotide], the fraction unbound [2] is listed as 0.65, the half-life ([1]; in humans) is listed as “about 100 min” and the “plasma half life time” value [3] is listed as 1.5 h.

For `NC(=O)CC[C@@H]1NC(=O)[C@H](Cc2ccccc2)NC(=O)[C@H](Cc2ccc(O)cc2)NC(=O)[C@@H](N)CSSC[C@@H](C(=O)N2CCC[C@H]2C(=O)N[C@@H](CCCN=C(N)N)C(=O)NCC(N)=O)NC(=O)[C@H](CC(N)=O)NC1=O` [vasopressin], the half-life ([1]; in humans) is given as 0.167 to 0.583 h.

With WKDEAGKPLVK [SEQUENCE ID NO. 1] the intracellular accumulation [4] was “significant intracellular accumulation”, the “anti-fibrotic activity compared with Elafibranor” value ([5]; equivalent molar doses) was “outperformed Elafibranor” and the α-SMA expression ([5]; human stellate cells treated with TGF-β1, peptide 5 nM, confocal imaging) was “decrease in α-SMA expression”. The “secretion of IL-8” value [6] was “reduces the secretion of IL-8”, the “binding / specific interaction with PANX1” value [7] was “Highly Selective Targets” and the “binding / specific interaction with SLC35F2” value [8] was “Highly Selective Targets”. The “binding / specific interaction with TACR1” value [9] was “Highly Selective Targets”, the “ATP mediated Ca2+ ion flux” value [10] was “blocks ATP mediated Ca^2+ ion flux” and the “intracellular concentration of the peptide” value [11] was “increased when the channel is activated”.

In the case of “pep_HTWCFL: the CY5 labelled version of SEQUENCE ID NO. 1 (WKDEAGKPLVK; also: Cy5 label, position not given here)”, the “primary hits in initial screening” value ([12]; 0.01 μg/ml test peptide on fixed cells for 30 minutes) is reported as 43, the “specific interactions for the test peptide after re-expression of primary hits” value ([12]; re-tested with 0.01 μg/ml and 0.05 μg/ml test peptide, fixed cells) is reported as “Nine” and the “binding / specific interaction with PANX1” value [7] is reported as “specific interactions”. The signal to background ([7]; fixed cells) was “greatest signal to background”, the “binding signal on live cells” value ([7]; live cell microarray) was “lack of signals seen on live cells” and the “binding / specific interaction with SLC35F2” value [8] was “specific interactions”. For the same molecule, the “specific interaction with SLC35F2” value ([8]; live cell microarray) was “specific interactions”, the “binding / specific interaction with TACR1” value [9] was “specific interactions” and the “specific interaction with TACR1” value ([9]; live cell microarray) was “specific interactions”.

B1: CY5-labelled peptide (pep_HTWCFL, the CY5 labelled version of SEQUENCE ID NO. 1) (peptide)
peptide: WKDEAGKPLVK-Cy5
notes: also called test peptide; C-terminal CY5 Tagged peptide
B1: binds [13]; binds [14].

Reference: patent US20230158100A1, “TREATMENT OF PANX1 ASSOCIATES DISEASES” (NURITAS LIMITED, priority 2020, published 2023)
